The values below come from patent US6482849B1, “Inhibitors of α4β1 mediated cell adhesion” (Tanabe Seiyaku Co., Ltd., priority 1997, dated 2002).

Data set [1] concerns the target T1, α4β1 integrin (Jurkat T-cell adhesion to IL-1 stimulated endothelial cell monolayers) (Homo sapiens, UniProt P05556+P13612).
T1 construct: a T-cell line, Jurkat, known to express the α4β1 integrin; host or cells: Jurkat T-cell line
Briefly: Jurkat-Endothelial Cell Adhesion Assay (Jurkat EC). The data set is classed as cell-based. As to conditions: Jurkat cells on IL-1 stimulated HUVEC monolayers. The method in brief:
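BCECF-loaded Jurkat cells (5×10^5) mixed with compound (generally 100, 20, 5 and 1.25 μM) and added to HUVEC monolayers prestimulated 4 hr with 0.1 ng/ml IL-1, in DMEM-HSA. After 5 min on ice and 20 min at 37° C, washed; fluorescence gives % adhesion relative to no-compound control set at 100%.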

Data set [2] deals with T2, α4β1 integrin (Jurkat cell adhesion to immobilized CS-1 derived peptide CLHPGEILDVPST) (Homo sapiens, UniProt P05556+P13612).
T2 construct: 100 μl of Jurkat cells (2.5×10^6 cells/ml) in DMEM plus BSA; endogenous in cells; host or cells: Jurkat T-cell line
Briefly: Jurkat-CS-1 Assay. Conditions: Jurkat cells on CS-1 peptide coated plates. It is filed as cell-based. The method in brief: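 CS-1 peptide was SPDP-crosslinked onto HSA-coated plates and blocked with BSA. Jurkat cells (2.5×10^6 cells/ml) in DMEM/BSA were mixed with compound, generally at 100, 20, 5 and 1.25 μM, and allowed to adhere for 1 hr at 37° C. Bound cells were fixed, stained with toluidine blue and quantified by OD590.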

Data set [3] relates to VLA-4 integrin-dependent eosinophil infiltration. The experiment in a line: Dextran pleurisy model (dextran-induced pleural leukocyte infiltration). It is filed as in vivo, C57BL/6 mice. Conditions: 4 h post-induction; for change in vivo at 50 mg/kg / change in vivo at 25 mg/kg: Mus musculus; for change in vivo at 25 mg/kg: 25 mg/kg × 2 iv (0h,+1h relative to dextran). As for the experimental part:
C57BL/6 mice (Jackson, Bar Harbor, Me.;), 6-8 weeks old, weighing 20-25 g were used throughout. All mice were acclimated for at least 7-14 days after arrival and maintained under controlled temperature (20-22° C.) and a 12 hr daily light cycle (6.00 A.M.-6.00 P.M.). Mice were housed in laminar flow racks and checked biweekly for viral infections (mouse hepatitis virus, minute virus of mice, rodent orphan parvovirus, Sendai) with kits obtained from Oreganon Teknika (Durham, N.C.) using established enzyme-linked immunoabsorbent assays. Mice testing positive for any of the above were omitted from the study. All mice were fed standard laboratory chow (Upjohn Lab Rodent Irradiated Mouse Chow, #5011-3, PMI Feeds, St. Louis, Mo.) and acidified drinking water (pH 5.0) ad libitum.
Intrapleural injections were made using a 27 G needle cut to 3-4 mm and blunted by filing. Injections were made by inserting the needle between the mid-intercostal ribs on the right side of the thoracic cavity.
Dextran (MW 5-40×10^6, St Louis, Mo.) was injected as a 10% solution in saline in a volume of 100 μl/mouse. Care was taken to avoid bleeding at the site of injection at which the intercostal muscles were cut to facilitate smooth insertion of the needle.
Pleural leukocytes were collected as follows: 4 h post-induction, pleural inflammatory exudate was removed by washing with 2×1.0 ml Ca^++/Mg^++ free HBSS (Gibco, Grand Island, N.Y.) containing 45 mg EDTA/100 ml HBSS, 4° C. Total leukocyte counts were made by hemocytometer following erythrocyte lysis in 2% acetic acid in PBS buffer; exudate leukocyte pellets were resuspended in serum for cytospin preparations and stained (Diff Quik, Baxter Healthcare, McGraw Park, Ill.) for differential leukocyte counts (neutrophils, eosinophils, and mononuclear leukocytes).
The pleural cavities of mice receiving either no intrapleural injection, or saline were washed and the cells counted in the same way to estimate baseline or saline-induced pleural leukocyte counts respectively.
All drugs were dissolved in PBS and the pH adjusted to 7.5 with NaOH. Each drug was administered intravenously through the retroorbital sinus at hourly intervals (0-3 h) starting from time “0” as indicated.
The following camphoric acid analogues were tested for their inhibitory effects on dextran-induced leukocyte infiltration: Examples 4, 12, 54, 63, 166, 93, 180, 181, 183, 184, 217, Camphoric acid or PBS (saline) was administered iv. as a control. Inhibition of eosinophil infiltration, which was suppressed by anti-alpha-4 Mab (PS/2, 50%), was used as a readout of VLA-4 antagonist activity of the camphoric acids tested. Data for neutrophils are also reported.

The test system of data set [4] is contact hypersensitivity response. Conditions: in vivo; cited from earlier work.
[5] abbreviates: 50 mg/kg × 2 iv (0h,+1h relative to dextran).
The mark [6] stands for this setting: 50 mg/kg × 4 iv (0h,+1h,+2h,+3h relative to dextran).
The mark [7] stands for this setting: Eosinophil, 50 mg/kg × 2 iv (0h,+1h relative to dextran), read-out: %Δ Pleural Leukocytes, Eos.
Where [8] appears, read: Neutrophil, 50 mg/kg × 2 iv (0h,+1h relative to dextran), read-out: %Δ Pleural Leukocytes, Neutro.
Setting [9] is: Eosinophil, read-out: %Δ Pleural Leukocytes, Eos.
[10] abbreviates: Neutrophil, read-out: %Δ Pleural Leukocytes, Neutro.

Read-outs that look alike come from different tables or passages of the source.

T1 sequence (P13612 34-1032): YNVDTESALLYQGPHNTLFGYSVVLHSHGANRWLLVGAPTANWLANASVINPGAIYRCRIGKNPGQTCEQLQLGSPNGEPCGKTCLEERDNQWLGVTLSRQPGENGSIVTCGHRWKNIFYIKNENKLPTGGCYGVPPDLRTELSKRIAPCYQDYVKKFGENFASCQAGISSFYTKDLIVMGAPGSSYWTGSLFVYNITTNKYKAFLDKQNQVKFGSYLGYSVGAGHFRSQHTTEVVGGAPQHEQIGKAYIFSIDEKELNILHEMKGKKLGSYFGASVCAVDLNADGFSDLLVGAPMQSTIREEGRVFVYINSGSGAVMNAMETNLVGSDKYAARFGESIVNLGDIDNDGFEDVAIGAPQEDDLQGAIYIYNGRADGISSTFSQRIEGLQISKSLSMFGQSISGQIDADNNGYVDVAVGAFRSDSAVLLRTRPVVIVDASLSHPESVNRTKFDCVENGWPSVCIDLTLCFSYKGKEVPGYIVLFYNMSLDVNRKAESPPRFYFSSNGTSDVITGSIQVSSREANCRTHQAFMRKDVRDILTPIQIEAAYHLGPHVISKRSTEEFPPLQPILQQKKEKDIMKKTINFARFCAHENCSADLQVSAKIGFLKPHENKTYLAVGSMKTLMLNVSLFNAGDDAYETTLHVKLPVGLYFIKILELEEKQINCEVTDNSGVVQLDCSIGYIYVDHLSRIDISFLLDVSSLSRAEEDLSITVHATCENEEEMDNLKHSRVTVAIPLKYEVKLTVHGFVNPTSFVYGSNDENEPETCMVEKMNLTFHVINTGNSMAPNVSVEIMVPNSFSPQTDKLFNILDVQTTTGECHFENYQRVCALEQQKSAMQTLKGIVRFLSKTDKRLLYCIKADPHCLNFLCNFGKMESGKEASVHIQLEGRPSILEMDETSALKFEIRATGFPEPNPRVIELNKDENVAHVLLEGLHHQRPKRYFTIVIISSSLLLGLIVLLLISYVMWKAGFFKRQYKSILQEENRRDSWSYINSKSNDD
T1 sequence (P05556 21-798): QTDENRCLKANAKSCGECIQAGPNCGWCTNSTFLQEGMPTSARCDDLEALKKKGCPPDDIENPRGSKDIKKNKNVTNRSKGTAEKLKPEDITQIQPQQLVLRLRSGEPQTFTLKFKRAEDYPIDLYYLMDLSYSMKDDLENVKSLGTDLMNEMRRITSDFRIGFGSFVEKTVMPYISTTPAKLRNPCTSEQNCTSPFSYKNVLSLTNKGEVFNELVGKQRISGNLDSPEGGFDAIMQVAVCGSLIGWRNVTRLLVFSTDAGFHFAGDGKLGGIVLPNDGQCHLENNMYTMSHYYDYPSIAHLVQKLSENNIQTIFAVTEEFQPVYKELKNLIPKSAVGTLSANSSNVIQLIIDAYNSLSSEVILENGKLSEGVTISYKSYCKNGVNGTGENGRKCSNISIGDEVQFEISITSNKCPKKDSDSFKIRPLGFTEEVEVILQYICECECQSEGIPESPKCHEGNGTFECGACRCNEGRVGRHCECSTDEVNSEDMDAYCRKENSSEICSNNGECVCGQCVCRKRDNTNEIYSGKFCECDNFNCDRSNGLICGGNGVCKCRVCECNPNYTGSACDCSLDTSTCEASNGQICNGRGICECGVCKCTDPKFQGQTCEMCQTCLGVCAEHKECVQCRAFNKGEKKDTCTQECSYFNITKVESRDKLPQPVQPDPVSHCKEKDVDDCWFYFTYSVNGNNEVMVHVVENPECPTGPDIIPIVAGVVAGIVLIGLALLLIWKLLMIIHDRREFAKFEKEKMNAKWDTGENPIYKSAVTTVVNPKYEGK
T2 sequence (P13612 34-1032): as the sequence (P13612 34-1032) above
T2 sequence (P05556 21-798): as the sequence (P05556 21-798) above

In the case of `CC1(C)[C@@H](C(=O)N[C@@H](Cc2ccc(OCc3c(Cl)cccc3Cl)cc2)C(=O)O)CC[C@@]1(C)C(=O)O` (relative stereo) [Example 12, (1S-cis)-N-[(3-Carboxy-2,2,3-trimethylcyclopentyl)carbonyl]-O-[(2,6-dichlorophenyl)methyl]-L-tyrosine], the values for the IC50 in data set [1] and in data set [2] were not above 800 nM and not above 80 nM, respectively. Besides, the “%Δ Pleural Leukocytes, Eos” value in data set [3] (setting [5]) and in data set [3] (setting [6]) was “A (A≦−50)” throughout. Further, the “%Δ Pleural Leukocytes, Neutro” value in data set [3] (setting [5]) and in data set [3] (setting [6]) was “B (−50<B<−10)” each time.

Regarding `CC1(C)[C@@H](C(=O)N[C@@H](Cc2cn(Cc3ccc(Cl)c(Cl)c3)cn2)C(=O)O)CC[C@@]1(C)C(=O)O` [Example 4, (1S-cis)-N-[(3-Carboxy-2,2,3-trimethylcyclopentyl)carbonyl]-1-[(3,4-dichlorophenyl)methyl]-L-histidine], the melting point is 148 to 149 °C (dec.). In data set [1], the IC50 fell in the range of 800 to 5000 nM. Moreover, the IC50 in data set [2] lay in the range of 80 to 500 nM. For the same compound, the change in vivo at 50 mg/kg in data set [3] (setting [7]) is not above -50%. In addition, the change in vivo at 50 mg/kg in data set [3] (setting [8]) was -50 to -10%.

Compound `CC1(C)[C@@H](C(=O)N[C@@H](Cc2ccc(NC(=O)c3c(Cl)cccc3Cl)cc2)C(=O)O)CC[C@@]1(C)C(=O)O` [Example 54, (1S-cis)-N-[(3-Carboxy-2,2,3-trimethylcyclopentyl)carbonyl]-4-[(2,6-dichlorobenzoyl)amino]-L-phenylalanine] yielded a melting point of 231 to 233 °C. The IC50 in data set [1] is not above 800 nM. For the same compound, the IC50 in data set [2] is not above 80 nM. In data set [3] (Eosinophil, 50 mg/kg × 4 iv (0h,+1h,+2h,+3h relative to dextran), read-out: %Δ Pleural Leukocytes, Eos), the change in vivo at 50 mg/kg is not above -50%. Further, the change in vivo at 50 mg/kg in data set [3] (Neutrophil, 50 mg/kg × 4 iv (0h,+1h,+2h,+3h relative to dextran), read-out: %Δ Pleural Leukocytes, Neutro) is -50 to -10%.

`CC1(C)[C@@H](C(=O)N[C@@H](Cc2ccc(OCc3c(Cl)cccc3Cl)c([N+](=O)[O-])c2)C(=O)O)CC[C@@]1(C)C(=O)O` [Example 63]: the melting point lay in the range of 92 to 94 °C. The IC50 in data set [1] is 800 to 5000 nM. In data set [2], the half-inhibitory concentration (IC50) was not above 80 nM. Besides, in data set [3] (setting [9]), the change in vivo at 25 mg/kg was -50 to -10%. Further, in data set [3] (setting [7]), the change in vivo at 50 mg/kg is -50 to -10%. Besides, in data set [3] (setting [10]), the change in vivo at 25 mg/kg is -50 to -10%. Moreover, the change in vivo at 50 mg/kg in data set [3] (setting [8]) is -50 to -10%.

For `CC1(C)[C@@H](C(=O)N[C@@H](Cc2ccc(NC(=O)c3c(Cl)cc(Cl)cc3Cl)cc2)C(=O)O)CC[C@@]1(C)C(=O)O` [Example 93], the IC50 in data set [1] was not above 800 nM; in data set [2], not above 80 nM. Moreover, the change in vivo at 50 mg/kg in data set [3] (setting [7]) is -50 to -10%; in data set [3] (setting [8]) it was -10 to 0%.

The compound `CC1(C)[C@@H](C(=O)N[C@@H](Cc2ccc(NC(=O)c3c(Cl)cccc3Cl)cc2)C(=O)O)CC[C@@]1(C)C(N)=O` [Example 166] registered a melting point of 196 to 198 °C. Moreover, the half-maximal inhibitory concentration (IC50) in data set [1] was not above 800 nM. The compound further yielded an IC50 in data set [2] not above 80 nM. Besides, the change in vivo at 50 mg/kg in data set [3] (setting [7]) is -50 to -10%. For the same compound, the change in vivo at 50 mg/kg in data set [3] (setting [8]) was -10 to 0%.

In the case of `CC1(C)[C@@H](C(=O)N[C@@H](Cc2ccc(NC(=O)c3c(Cl)cccc3Cl)cc2)C(=O)O)CC[C@@]1(C)C(=O)NCC(N)=O` [Example 180, (1S-cis)-N-[[3-[[(2-Amino-2-oxoethyl)amino]-carbonyl]-2,2,3-trimethylcyclopentyl]carbonyl]-4-[(2,6-dichlorobenzoyl)amino]-L-phenylalanine], the melting point was 203 to 205 °C. The same compound gave a concentration for half-maximal inhibition (IC50) in data set [1] not above 800 nM. In addition, the IC50 in data set [2] is not above 80 nM. Further, the change in vivo at 25 mg/kg in data set [3] (setting [9]) is -50 to -10%. The change in vivo at 50 mg/kg in data set [3] (setting [7]) was -50 to -10%. Also, the change in vivo at 25 mg/kg in data set [3] (setting [10]) was -50 to -10%. Moreover, in data set [3] (setting [8]), the change in vivo at 50 mg/kg is -50 to -10%.

Take `CC1(C)[C@@H](C(=O)N[C@@H](Cc2ccc(NC(=O)c3c(Cl)cccc3Cl)cc2)C(=O)O)CC[C@@]1(C)C(=O)NCC(=O)O` [Example 181, (1S-cis)-N-[[3-[[(Carboxymethyl)amino]carbonyl]-2,2,3-trimethylcyclopentyl]carbonyl]-4-[(2,6-dichlorobenzoyl)amino]-L-phenylalanine]: the IC50 was not above 800 nM in data set [1] and not above 80 nM in data set [2]. Further, the change in vivo at 25 mg/kg in data set [3] (setting [9]) and in data set [3] (setting [10]) was -50 to -10% in each case. For the same compound, the change in vivo at 50 mg/kg in data set [3] (setting [7]) and in data set [3] (setting [8]) was -50 to -10% each time.

Turning to `CC1(C)[C@@H](C(=O)N[C@@H](Cc2ccc(NC(=O)c3c(Cl)cccc3Cl)cc2)C(=O)O)CC[C@@]1(C)C#N` [Example 184, (1S-cis)-N-[[3-Cyano-2,2,3-trimethylcyclopentyl]carbonyl]-4-[(2,6-dichlorobenzoyl)amino]-L-phenylalanine], the IC50 in data set [1] is not above 800 nM; in data set [2], not above 80 nM. The change in vivo at 25 mg/kg in data set [3] (setting [9]) and in data set [3] (setting [10]) was -50 to -10% each time. In addition, the change in vivo at 50 mg/kg in data set [3] (setting [7]) is not above -50%; in data set [3] (setting [8]), -50 to -10%.

For `CC1(C)[C@@H](C(=O)N[C@@H](Cc2ccc(NC(=O)c3c(Cl)cccc3Cl)cc2)C(=O)O)CC[C@@]1(C)C(=O)NOCc1ccccc1` [Example 217], the figures for the IC50 in data set [1] and in data set [2] were not above 800 nM and not above 80 nM, respectively. The change in vivo at 50 mg/kg in data set [3] (setting [7]) is -50 to -10%; in data set [3] (setting [8]) it was -10 to 0%.

Turning to EILDV, the Contact hypersensitivity response entry in data set [4] is listed as “blocked”.
